Measurements as given in paper PMC10988555, “Exploiting Co(III)-Cyclopentadienyl Complexes To Develop Anticancer Agents” (Inorganic Chemistry, 2024).

Experiments:
[1] = test system: Caspase 8 in A2780 cell line; assay: Caspase 8 activity assay; type: cell-based, human; details: A2780, IC50, 48 h, normalized to DMSO
Protocol: The A2780 cell line was seeded in 25 cm^2 T-flasks at a density of 2 × 10^6 cells/T-flasks. […] After that, cells were detached using cold PBS 1× and a cell scraper and centrifuged at 500 × g for 5 min. Then, we followed the instructions provided by the manufacturer of the Caspase-8 assay kit (Abcam). The data was obtained by measuring the absorbance of each sample at 400 nm and each value was normalized to the value of the DMSO sample.

[2] = test system: A2780 cells; assay: Cellular viability after 12 h at 37 °C versus 4 °C; type: cell-based, human; details: A2780, 12 h, 20× IC50
[3] = test system: plasmidic DNA (pUC18); assay: Interaction with pDNA and cleavage mechanism (agarose gel electrophoresis); type: biochemical; details: 25 μM complex with NaN3, catalase or D2O, 24 h
Protocol: E. coli transformed with pUC18 was inoculated onto a plate of LB-agar medium (Luria–Bertani) (Applichem, Darmstadt, Germany) supplemented with ampicillin (100 μg/mL) (Bioline, London, UK) and incubated for 24 h at 37 °C. Then, the E. coli cells were inoculated in liquid LB medium, supplemented with ampicillin (100 μg/mL) for 24 h at 37 °C. After incubation, the plasmid DNA (pDNA) was extracted by using the Kit NZYSpeedy Miniprep, following the instructions provided by the manufacturer.
The extracted pDNA (100 ng) was incubated with 5, 25, 50, and 100 μM concentrations of complexes 2–4, with DMSO 0.1% or only pUC18. The solutions were prepared in 5 mM Tris–HCl, 50 mM NaCl, pH 7.02, buffer, and incubated for 24 h at 37 °C. A control of pDNA cleaved with Hind III endonuclease was also used. Electrophoresis was performed in 0.8% (w/v) agarose gel (NZYtech) in TAE buffer at 70 V constant voltage for 1 h. Electrophoresis gel image was acquired in the Gel Doc EZ Imager (Bio-Rad).
The pDNA (100 ng) was incubated with 25 μM of complexes 2–4, in the absence or presence of 50 μM of NaN3, 4 units of catalase from the bovine liver (2000–5000 U/mg, Sigma-Aldrich, Spain), and 25 mM of D2O. The solutions were prepared in 5 mM Tris–HCl, 50 mM NaCl, pH 7.02, buffer, and incubated for 24 h at 37 °C. A control of pDNA cleaved with Hind III endonuclease was also used. […]

Row | Structure (SMILES) | caspase 8 activity relative to control [1] [×] | cytotoxic activity at 4 °C compared to 37 °C [2] | pDNA cleavage mechanism [3]
1 | Nc1cc2cccnc2c2ncccc12.O=S(=O)([O-])C(F)(F)F.O=S(=O)([O-])C(F)(F)F.[Co+3].c1cc[cH-]c1.c1ccc(P(c2ccccc2)c2ccccc2)cc1 [Complex 4, [CoCp(PPh3)(NH2phen)][(CF3SO3)2]] | 1.6 |  | 
2 | O=S(=O)([O-])C(F)(F)F.O=S(=O)([O-])C(F)(F)F.[Co+3].c1cc[cH-]c1.c1ccc(P(c2ccccc2)c2ccccc2)cc1.c1cnc2c(c1)ccc1cccnc12 [Complex 3, [Co(η^5-C5H5)(PPh3)(phen)][(CF3SO3)2]] |  | significantly lose some of their cytotoxic activity at 4 °C | cleave pDNA through singlet oxygen
3 | Cc1ccnc(-c2cc(C)ccn2)c1.O=S(=O)([O-])C(F)(F)F.O=S(=O)([O-])C(F)(F)F.[Co+3].c1cc[cH-]c1.c1ccc(P(c2ccccc2)c2ccccc2)cc1 [Complex 2, [Co(η^5-C5H5)(PPh3)(Me2bipy)][(CF3SO3)2]] | 2 | significantly lose some of their cytotoxic activity at 4 °C | cleave pDNA through singlet oxygen
